In one assay the test system is Staphylococcus aureus. Nature of the assay: Antibacterial activity against methicillin-resistant Staphylococcus aureus at 100 ug/disc. The assay is classed as functional, organism-based.
The test system of another assay is L1210. As to the kind of experiment: Cytotoxicity against mouse L1210 cells at 25 ppm. The assay is classed as functional.

Activity calls are given as the source filed them. No cut-off for these calls is given here.

We go through 6 compounds from ChEMBL document CHEMBL1141350, “Pentaketides relating to aspinonene and dihydroaspyrone from a marine-derived fungus, Aspergillus ostianus” (2007).

Broadly, the inhibition is the change of the read-out against control, counted positive when it falls. Higher therefore signals a response far below the control.

Take `C[C@H](O)/C=C(/C=C/[C@H](C)O)CO`: the outcome in the assay with Staphylococcus aureus was inactive.

As to `C[C@H](O)/C=C(/C=C/[C@@H](C)O)CO`, the result with Staphylococcus aureus and in the assay on L1210 was inactive.

`C[C@H](O)/C=C/[C@@](O)(CO)[C@@H]1O[C@H]1C` [ASPINONENE]: the outcome in the assay on Staphylococcus aureus was inactive. For the same compound, in the assay on L1210, 25 ppm produced 27% inhibition.

As for `C[C@H](O)CC1=C[C@H](O)[C@@H](C)OC1=O`, the outcome in the assay on Staphylococcus aureus was inactive.

Turning to `CC(=O)/C=C/C(=C/[C@H](C)O)CO`, the result with Staphylococcus aureus was inactive.

In the assay on L1210, `CO[C@](C(=O)O[C@@H](C)CC1=C[C@H](O)[C@@H](C)OC1=O)(c1ccccc1)C(F)(F)F` came in with an inhibition at 25 ppm of 25%.
